Read-outs that look alike come from different tables or passages of the source.
Assays:
[1] = target: T1, ExsA (Pseudomonas aeruginosa, UniProt P26993); assay: Chemiluminescence-based ExsA-DNA binding assay; design: species or system P. aeruginosa; conditions: Table 7, cell-free system; read-out: ExsA EC50
T1 construct: made in house
T1 sequence (P26993 1-278): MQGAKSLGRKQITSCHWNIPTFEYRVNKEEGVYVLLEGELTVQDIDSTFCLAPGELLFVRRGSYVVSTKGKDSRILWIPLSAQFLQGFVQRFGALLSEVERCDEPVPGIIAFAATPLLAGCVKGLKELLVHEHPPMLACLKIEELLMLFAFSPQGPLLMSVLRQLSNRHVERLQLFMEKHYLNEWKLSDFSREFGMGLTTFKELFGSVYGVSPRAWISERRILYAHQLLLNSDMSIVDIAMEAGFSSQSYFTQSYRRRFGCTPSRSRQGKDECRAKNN

[2] = test system: Y. pseudotuberculosis; assay: microbe, parasite or virus in culture; conditions: Yersinia pseudotuberculosis, J774, read-out: % Cytotoxicity
[3] = target: LcrF (VirF) (Yersinia pestis, UniProt P28808); assay: biochemical; type: binding, Y. pseudotuberculosis
LcrF (VirF), sequence (P28808 whole entry, looked up): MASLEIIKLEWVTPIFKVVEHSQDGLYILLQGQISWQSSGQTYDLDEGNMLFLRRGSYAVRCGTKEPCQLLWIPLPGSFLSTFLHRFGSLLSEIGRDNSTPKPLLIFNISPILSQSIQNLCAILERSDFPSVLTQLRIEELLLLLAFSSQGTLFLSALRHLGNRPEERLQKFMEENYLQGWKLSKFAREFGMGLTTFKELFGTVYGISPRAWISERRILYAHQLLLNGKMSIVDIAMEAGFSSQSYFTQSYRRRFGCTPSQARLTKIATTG

[4] = test system: P. aeruginosa; assay: P. aeruginosa cytotoxicity whole cell assay (J774 cells, LDH release); conditions: relative to vehicle treated cells infected with wild type P. aeruginosa
[5] = EC50 for inhibition of LcrF(VirF)-DNA binding
[6] = read-out: EC50 for inhibition of LcrF(VirF)-DNA binding

SMILES | EC50 [1] | activity at 50 µg/mL [2] | EC50 [3, 5] | EC50 [3, 6] | Cytotoxicity at 50 μg/mL Pseudomonas [4]
O=C(Nc1ccc(-c2nc3ccc([N+](=O)[O-])cc3n2O)cc1)c1ccc(-n2cccn2)cc1 [AB] | < 10 µM |  |  |  | 
CC(=O)Nc1ccc(C(=O)Nc2ccc(-c3nc4ccc([N+](=O)[O-])cc4n3O)cc2)cc1 [AC] | < 10 µM | < 75% | 10 to 25 µM |  | 
O=C(Nc1ccc(-c2nc3ccc([N+](=O)[O-])cc3n2O)cc1)c1ccc(N2CCOCC2)cc1 [AD] | 10 to 25 µM |  |  |  | 
O=C(Nc1ccc(-c2nc3ccc([N+](=O)[O-])cc3n2O)cc1)c1ccc(O)cc1 [AE] | 10 to 25 µM |  |  |  | 
NS(=O)(=O)c1ccc(C(=O)Nc2ccc(-c3nc4ccc([N+](=O)[O-])cc4n3O)cc2)cc1 [AF] | 10 to 25 µM |  |  |  | 
CS(=O)(=O)c1ccc(C(=O)Nc2ccc(-c3nc4ccc([N+](=O)[O-])cc4n3O)cc2)cc1 [AG] | > 25 µM |  |  |  | 
O=C(O)c1ccc(C(=O)Nc2ccc(-c3nc4ccc([N+](=O)[O-])cc4n3O)cc2)cc1 [AI] | > 25 µM |  |  |  | 
O=C(/C=C/c1ccc(O)cc1)Nc1ccc(-c2nc3ccc([N+](=O)[O-])cc3n2O)cc1 [AN] | 10 to 25 µM |  |  |  | 
CC(C)c1ccc(/C=C/C(=O)Nc2ccc(-c3nc4ccc([N+](=O)[O-])cc4n3O)cc2)cc1 [CS] | > 25 µM | < 75% | > 25 µM |  | 
C/C(=C\c1ccccc1)C(=O)Nc1ccc(-c2nc3ccc([N+](=O)[O-])cc3n2O)cc1 [CT] | > 25 µM | < 75% | > 25 µM |  | 
O=C(Nc1ccc2nc(-c3ccc([N+](=O)[O-])cc3)n(O)c2c1)c1ccc(F)cc1 [CW] |  | < 75% |  | > 25 µM | 
NC(=NO)c1ccc2nc(-c3ccc(NC(=O)c4ccc(F)cc4)cc3)n(O)c2c1 [CX] | > 25 µM | < 75% | > 25 µM |  | 
CC(=NO)c1ccc2nc(-c3ccc(NC(=O)c4ccc(N(C)C)cc4)cc3)n(O)c2c1 [DF] | > 25 µM | < 75% | > 25 µM |  | 
O=C(O)COn1c(-c2ccc(NC(=O)c3ccc(F)cc3)cc2)nc2ccc([N+](=O)[O-])cc21 [DG, {2-[4-(4-Fluoro-benzoylamino)-phenyl]-6-nitro-benzoimidazol-1-yloxy}-acetic acid] |  | < 75% | > 25 µM |  | 
CCc1cc(-c2nc3ccc([N+](=O)[O-])cc3n2O)ccc1NC(=O)c1ccc(F)cc1 [DK] | > 25 µM | < 75% | 10 to 25 µM |  | 
NC(=O)c1ccc2nc(-c3ccc(NC(=O)c4ccc(F)cc4)cc3)n(O)c2c1 [DO, 2-[4-(4-Fluoro-benzoylamino)-phenyl]-3-hdroxy-3H-benzoimidazole-5-carboxylic acid amide] | > 25 µM | < 75% |  | > 25 µM | 
O=C(Nc1ccc(-c2nc3ccc([N+](=O)[O-])cc3n2O)nc1)c1ccc(F)cc1 [DQ] | > 25 µM | < 75% | > 25 µM |  | 
O=C(Nc1ccc(-c2nc3ccc([N+](=O)[O-])cc3n2OCP(=O)(O)O)cc1)c1ccc(F)cc1 [DV] | > 25 µM | < 75% |  | > 25 µM | 
O=C(Nc1ccc(-c2nc3ccc([N+](=O)[O-])cc3n2O)c(OCP(=O)(O)O)c1)c1ccc(F)cc1 [EC, [5-(4-Fluoro-benzoylamino)-2-(1-hydroxy-6-nitro-1H-benzoimidazol-2-yl)-phenoxymethyl]-phosphonic acid] | > 25 µM | < 75% |  | > 25 µM | 
CCOP(=O)(COn1c(-c2ccc(NC(=O)c3ccc(F)cc3)cc2)nc2ccc([N+](=O)[O-])cc21)OCC [EG] | > 25 µM | < 75% |  | > 25 µM | 
O=C(Nc1ccc(-c2nc3ccncc3n2O)cc1)c1ccc(F)cc1 [EJ] | > 25 µM | < 75% |  | > 25 µM | 
O=C(/C=C/c1ccc(F)cc1)Nc1ccc(-c2nc3ccncc3n2O)cc1 [EK] | > 25 µM | < 75% |  | > 25 µM | 
Cc1cc(-c2nc3ccc([N+](=O)[O-])cc3n2O)ccc1NC(=O)/C=C/c1ccc(F)cc1 [EN] | > 25 µM | < 75% | 10 to 25 µM |  | 

SMILES | EC50 [1] | activity at 50 µg/mL [2] | EC50 [3, 5] | EC50 [3, 6] | Cytotoxicity at 50 μg/mL Pseudomonas [4]
O=C(Nc1ccc(-c2nc3ccc([N+](=O)[O-])cc3n2O)cc1)c1ccc2c(c1)CCCC2=O [EP] | > 25 µM | < 75% | > 25 µM |  | 
CC(=O)c1ccc(C(=O)Nc2ccc(-c3nc4ccc([N+](=O)[O-])cc4n3O)cc2C)cc1 [ER] |  | < 75% |  | > 25 µM | 
CN(C)CCN(C)c1cc2nc(-c3ccc(NC(=O)/C=C/c4ccc(F)cc4)cc3)n(O)c2cc1[N+](=O)[O-] [FQ] |  |  |  |  | ** (reduced P. aeruginosa cytotoxicity below 75% of untreated, wild type levels at 50 mg/mL)
CN1CCN(CCOc2cc3nc(-c4ccc(NC(=O)/C=C/c5ccc(F)cc5)cc4)n(O)c3cc2[N+](=O)[O-])CC1 [FR] |  |  |  |  | * (reduced P. aeruginosa cytotoxicity to 99-75% of untreated, wild type levels at 50 mg/mL)
CN(C)CCOc1cc2nc(-c3ccc(NC(=O)/C=C/c4ccc(F)cc4)cc3)n(O)c2cc1[N+](=O)[O-] [FS] | > 25 µM |  |  |  | * (reduced P. aeruginosa cytotoxicity to 99-75% of untreated, wild type levels at 50 mg/mL)
CC(=O)c1ccc(/C=C/C(=O)Nc2ccc(-c3nc4cc(OCCN5CCN(C)CC5)c([N+](=O)[O-])cc4n3O)cc2)cc1 [FU] |  |  |  |  | ** (reduced P. aeruginosa cytotoxicity below 75% of untreated, wild type levels at 50 mg/mL)
CC(=O)c1ccc(C(=O)Nc2ccc(-c3nc4ccc(-n5ccnc5)cc4n3O)cc2)cc1 [FZ, 4-Acetyl-N-[4-(1-hdroxy-6-imidazol-1-yl-1H-benzoimidazol-2-yl)-phenyl]-benzamide] | > 25 µM |  |  |  | * (reduced P. aeruginosa cytotoxicity to 99-75% of untreated, wild type levels at 50 mg/mL)
O=C(Cc1ccc(F)cc1)Nc1ccc(-c2nc3ccc([N+](=O)[O-])cc3n2O)cc1 [G] | > 25 µM |  | > 25 µM |  | 
O=C(/C=C/c1ccccc1)Nc1ccc(-c2nc3ccc([N+](=O)O)cc3n2O)cc1 [J] | < 10 µM | < 75% | < 10 µM |  | 
O=C(Nc1ccc(-c2nc3ccc([N+](=O)[O-])cc3n2O)cc1)c1ccc(-n2cncn2)cc1 [K] | < 10 µM | < 75% | 10 to 25 µM |  | 
O=C(CCc1ccc(F)cc1)Nc1ccc(-c2nc3ccc([N+](=O)[O-])cc3n2O)cc1 [L] | > 25 µM |  | > 25 µM |  | 
O=C(Nc1ccc(-c2nc3ccc([N+](=O)[O-])cc3n2O)cc1)c1cccc(F)c1 [N] |  |  | > 25 µM |  | 
Cc1cccc(C(=O)Nc2ccc(-c3nc4ccc([N+](=O)[O-])cc4n3O)cc2)c1 [O] |  |  | > 25 µM |  | 
Cc1ccccc1C(=O)Nc1ccc(-c2nc3ccc([N+](=O)[O-])cc3n2O)cc1 [P] |  |  | > 25 µM |  | 
O=C(Nc1ccc(-c2nc3ccc([N+](=O)[O-])cc3n2O)cc1)c1ccccc1F [Q] |  |  | > 25 µM |  | 
O=[N+]([O-])c1ccc2nc(-c3ccc(C#Cc4ccc(F)cc4)cc3)n(O)c2c1 [R] | > 25 µM |  | > 25 µM |  | 
COc1ccc(/C=C/C(=O)Nc2ccc(-c3nc4ccc([N+](=O)[O-])cc4n3O)cc2)cc1 [T] | < 10 µM | < 75% | < 10 µM |  | 
COc1ccccc1/C=C/C(=O)Nc1ccc(-c2nc3ccc([N+](=O)[O-])cc3n2O)cc1 [U] | < 10 µM |  | 10 to 25 µM |  | 
O=C(/C=C/c1ccc(F)c(F)c1)Nc1ccc(-c2nc3ccc([N+](=O)[O-])cc3n2O)cc1 [W] | 10 to 25 µM | < 75% | 10 to 25 µM |  | 
N#Cc1ccc(/C=C/C(=O)Nc2ccc(-c3nc4ccc([N+](=O)[O-])cc4n3O)cc2)cc1 [X] | < 10 µM | < 75% | 10 to 25 µM |  | 
O=C(/C=C/c1ccc(C(F)(F)F)cc1)Nc1ccc(-c2nc3ccc([N+](=O)[O-])cc3n2O)cc1 [Y] | 10 to 25 µM |  | < 10 µM |  | 
O=C(NCc1ccc(-c2nc3ccc([N+](=O)[O-])cc3n2O)cc1)c1ccc(F)cc1 [Z] | > 25 µM |  | > 25 µM |  | 
